Results from patent US10597388B2, “Pyridazinone herbicides” (FMC CORPORATION, priority 2014, dated 2020).

Tests used:
Experiment in all cases: Test C greenhouse herbicide test, pre- and postemergence
Format in all cases: in vivo
[1] = test system: barnyardgrass (Echinochloa crus-galli)
From the text: (§1) Seeds of plant species selected from blackgrass (Alopecurus myosuroides), ryegrass, Italian (Italian ryegrass, Lolium multiflorum), wheat (winter wheat, Triticum aestivum), galium (catchweed bedstraw, Galium aparine), corn (Zea mays), large crabgrass, large (large crabgrass, Digitaria sanguinalis), foxtail, giant (giant foxtail, Setaria faberii), johnsongrass (Sorghum halepense), lambsquarters (Chenopodium album), morningglory (Ipomoea coccinea), nutsedge, yellow (yellow nutsedge, Cyperus esculentus), pigweed (Amaranthus retroflexus), ragweed (common ragweed, Ambrosia elatior), soybean (Glycine max), barnyardgrass (Echinochloa crus-galli), oilseed rape (Brassica napus), waterhemp (common waterhemp, Amaranthus rudis), and velvetleaf (Abutilon theophrasti) were planted into a blend of loam soil and sand and treated preemergence with test chemicals formulated in a non-phytotoxic solvent mixture which included a surfactant.
(§2) At the same time, plants selected from these crop and weed species and also chickweed (common chickweed, Stellaria media), kochia (Kochia scoparia), and oat, wild (wild oat, Avena fatua), were planted in pots containing Redi-Earth® planting medium (Scotts Company, 14111 Scottslawn Road, Marysville, Ohio 43041) comprising spaghnum peat moss, vermiculite, wetting agent and starter nutrients and treated with postemergence applications of test chemicals formulated in the same manner. Plants ranged in height from 2 to 18 cm (1- to 4-leaf stage) for postemergence treatments. Treated plants and controls were maintained in a greenhouse for 13 to 15 d, after which time all species were compared to controls and visually evaluated. Plant response ratings, summarized in Table C, are based on a scale of 0 to 100 where 0 is no effect and 100 is complete control. A dash (-) response means no test result.

[2] = test system: pigweed (Amaranthus retroflexus)
From the text: as §1, §2

[3] = test system: blackgrass (Alopecurus myosuroides)
From the text: as §1, §2

corn (Zea mays) = test system: corn (Zea mays)
From the text: as §1, §2

[4] = test system: galium (catchweed bedstraw, Galium aparine)
From the text: as §1, §2

[5] = test system: ragweed (common ragweed, Ambrosia elatior)
From the text: as §1, §2

[6] = test system: ryegrass, Italian (Italian ryegrass, Lolium multiflorum)
From the text: as §1, §2

[7] = test system: wheat (winter wheat, Triticum aestivum)
From the text: as §1, §2

[8] = test system: waterhemp (common waterhemp, Amaranthus rudis)
From the text: as §1, §2

[9] = test system: velvetleaf (Abutilon theophrasti)
From the text: as §1, §2

[10] = test system: nutsedge, yellow (yellow nutsedge, Cyperus esculentus)
From the text: as §1, §2

soybean (Glycine max) = test system: soybean (Glycine max)
From the text: as §1, §2

[11] = test system: lambsquarters (Chenopodium album)
From the text: as §1, §2

[12] = test system: foxtail, giant (giant foxtail, Setaria faberii)
From the text: as §1, §2

[13] = test system: morningglory (Ipomoea coccinea)
From the text: as §1, §2

[14] = test system: johnsongrass (Sorghum halepense)
From the text: as §1, §2

[15] = Postemergence, 31 g ai/ha, 0 to 100 scale (0 no effect, 100 complete control)
[16] = Postemergence, 125 g ai/ha, scale 0 to 100, 0 is no effect, 100 is complete control
[17] = Postemergence, 250 g ai/ha, scale 0 to 100, 0 no effect, 100 complete control, 13 to 15 d
[18] = Preemergence, 31 g ai/ha, scale 0 to 100, 0 is no effect, 100 is complete control
[19] = Preemergence, 62 g ai/ha, scale 0 to 100, 0 is no effect, 100 is complete control
[20] = Preemergence, 125 g ai/ha, scale 0 to 100, 0 is no effect, 100 is complete control
[21] = Preemergence, 250 g ai/ha, scale 0 to 100 (0 no effect, 100 complete control)
[22] = postemergence, 62 g ai/ha, scale 0 to 100, 0 no effect, 100 complete control

CCC(=O)Oc1c(C)nn(C)c(=O)c1-c1c(C)sc2ccc(C)cc12 [Compound 42]
Barnyardgrass plant response rating [1, 15]: 20
Plant response rating, Barnyardgrass [1, 16]: 30
Plant response rating, Barnyardgrass [1, 17]: 40
Plant response rating, Barnyardgrass [1, 18]: 0
Plant response rating, Barnyardgrass [1, 19]: 30
Plant response rating, Barnyardgrass [1, 20]: 60
Barnyardgrass plant response rating [1, 21]: 80
Barnyardgrass plant response rating [1, 22]: 30
Pigweed plant response rating [2, 15]: 85
Plant response rating, Pigweed [2, 16]: 98
Plant response rating, Pigweed [2, 17]: 98
Plant response rating, Pigweed [2, 18]: 100
Plant response rating, Pigweed [2, 19]: 100
Plant response rating, Pigweed [2, 20]: 100
Pigweed plant response rating [2, 21]: 100
Pigweed plant response rating [2, 22]: 95
Blackgrass plant response rating [3, 15]: 30
Plant response rating, Blackgrass [3, 16]: 60
Plant response rating, Blackgrass [3, 17]: 70
Plant response rating, Blackgrass [3, 18]: 40
Plant response rating, Blackgrass [3, 19]: 85
Plant response rating, Blackgrass [3, 20]: 90
Blackgrass plant response rating [3, 21]: 90
Blackgrass plant response rating [3, 22]: 35
Corn plant response rating (corn (Zea mays); [15]): 0
Plant response rating, Corn (corn (Zea mays); [16]): 5
Plant response rating, Corn (corn (Zea mays); [17]): 5
Plant response rating, Corn (corn (Zea mays); [18]): 0
Plant response rating, Corn (corn (Zea mays); [19]): 0
Plant response rating, Corn (corn (Zea mays); [20]): 10
Corn plant response rating (corn (Zea mays); [21]): 35
Corn plant response rating (corn (Zea mays); [22]): 5
Galium plant response rating [4, 15]: 95
Plant response rating, Galium [4, 16]: 100
Plant response rating, Galium [4, 17]: 95
Plant response rating, Galium [4, 18]: 90
Plant response rating, Galium [4, 19]: 90
Plant response rating, Galium [4, 20]: 95
Galium plant response rating [4, 21]: 98
Galium plant response rating [4, 22]: 90
Ragweed plant response rating [5, 15]: 90
Plant response rating, Ragweed [5, 16]: 98
Plant response rating, Ragweed [5, 17]: 100
Plant response rating, Ragweed [5, 18]: 90
Plant response rating, Ragweed [5, 19]: 90
Plant response rating, Ragweed [5, 20]: 95
Ragweed plant response rating [5, 21]: 100
Ragweed plant response rating [5, 22]: 85
Ryegrass, Italian plant response rating [6, 15]: 65
Plant response rating, Ryegrass, Italian [6, 16]: 90
Plant response rating, Ryegrass, Italian [6, 17]: 95
Plant response rating, Ryegrass, Italian [6, 18]: 85
Plant response rating, Ryegrass, Italian [6, 19]: 90
Plant response rating, Ryegrass, Italian [6, 20]: 90
Ryegrass, Italian plant response rating [6, 21]: 90
Ryegrass, Italian plant response rating [6, 22]: 90
Wheat plant response rating [7, 15]: 0
Plant response rating, Wheat [7, 16]: 0
Plant response rating, Wheat [7, 17]: 0
Plant response rating, Wheat [7, 18]: 0
Plant response rating, Wheat [7, 19]: 0
Plant response rating, Wheat [7, 20]: 0
Wheat plant response rating [7, 21]: 5
Wheat plant response rating [7, 22]: 0
Waterhemp plant response rating [8, 15]: 75
Plant response rating, Waterhemp [8, 16]: 98
Plant response rating, Waterhemp [8, 17]: 95
Plant response rating, Waterhemp [8, 18]: 80
Plant response rating, Waterhemp [8, 19]: 98
Plant response rating, Waterhemp [8, 20]: 100
Waterhemp plant response rating [8, 21]: 100
Waterhemp plant response rating [8, 22]: 85
Velvetleaf plant response rating [9, 15]: 45
Plant response rating, Velvetleaf [9, 16]: 85
Plant response rating, Velvetleaf [9, 17]: 95
Plant response rating, Velvetleaf [9, 18]: 85
Plant response rating, Velvetleaf [9, 19]: 90
Plant response rating, Velvetleaf [9, 20]: 90
Velvetleaf plant response rating [9, 21]: 98
Velvetleaf plant response rating [9, 22]: 85
Nutsedge, Yellow plant response rating [10, 15]: 65
Plant response rating, Nutsedge, Yellow [10, 17]: 95
Plant response rating, Nutsedge, Yellow [10, 18]: 55
Plant response rating, Nutsedge, Yellow [10, 19]: 60
Plant response rating, Nutsedge, Yellow [10, 20]: 40
Nutsedge, Yellow plant response rating [10, 21]: 80
Nutsedge, Yellow plant response rating [10, 22]: 75
Soybean plant response rating (soybean (Glycine max); [15]): 0
Plant response rating, Soybean (soybean (Glycine max); [16]): 10
Plant response rating, Soybean (soybean (Glycine max); [17]): 15
Plant response rating, Soybean (soybean (Glycine max); [18]): 35
Plant response rating, Soybean (soybean (Glycine max); [19]): 0
Plant response rating, Soybean (soybean (Glycine max); [20]): 0
Soybean plant response rating (soybean (Glycine max); [21]): 5
Soybean plant response rating (soybean (Glycine max); [22]): 5
Lambsquarters plant response rating [11, 15]: 85
Plant response rating, Lambsquarters [11, 16]: 100
Plant response rating, Lambsquarters [11, 17]: 98
Plant response rating, Lambsquarters [11, 18]: 85
Plant response rating, Lambsquarters [11, 19]: 80
Plant response rating, Lambsquarters [11, 20]: 85
Lambsquarters plant response rating [11, 21]: 90
Lambsquarters plant response rating [11, 22]: 95
Foxtail, Giant plant response rating [12, 15]: 25
Plant response rating, Foxtail, Giant [12, 16]: 35
Plant response rating, Foxtail, Giant [12, 17]: 80
Plant response rating, Foxtail, Giant [12, 18]: 75
Plant response rating, Foxtail, Giant [12, 19]: 80
Plant response rating, Foxtail, Giant [12, 20]: 90
Foxtail, Giant plant response rating [12, 21]: 100
Foxtail, Giant plant response rating [12, 22]: 30
Morningglory plant response rating [13, 15]: 75
Plant response rating, Morningglory [13, 16]: 100
Plant response rating, Morningglory [13, 17]: 100
Plant response rating, Morningglory [13, 18]: 85
Plant response rating, Morningglory [13, 19]: 98
Plant response rating, Morningglory [13, 20]: 98
Morningglory plant response rating [13, 21]: 98
Morningglory plant response rating [13, 22]: 100
Johnsongrass plant response rating [14, 15]: 5
Plant response rating, Johnsongrass [14, 17]: 25
Plant response rating, Johnsongrass [14, 18]: 0
Plant response rating, Johnsongrass [14, 19]: 0
Plant response rating, Johnsongrass [14, 20]: 5
Johnsongrass plant response rating [14, 21]: 30
Johnsongrass plant response rating [14, 22]: 5
